# Results taken from EPA's ToxRefDB 2.
# How the values were obtained:
# dog [1] = conditions: Chronic toxicity, beagle, Oral, Capsule, dose end: 52 week, group: systemic
# rat [2] = conditions: Multigenerational reproductive toxicity study, sprague dawley, Oral, Feed, dose end: 3 generation
# rat [3] = conditions: Multigenerational reproductive toxicity study, other, Oral, Feed, dose end: 2 generation
# rat [4] = conditions: Prenatal developmental toxicity study, other, Oral, Gavage/Intubation, dose end: 15 GD
# rabbit = conditions: Prenatal developmental toxicity study, new zealand white, Oral, Gavage/Intubation, dose end: 18 GD
# rat [5] = conditions: Combined chronic toxicity/carcinogenicity, wistar, Oral, Feed, dose end: 103 week, group: systemic
# mouse [6] = conditions: Combined chronic toxicity/carcinogenicity, cd1, Oral, Diet, dose end: 104 week, group: systemic
# mouse [7] = conditions: Carcinogenicity, cd1, Oral, Diet, dose end: 85 week, group: systemic
# dog [8] = conditions: Chronic toxicity; beagle; Oral; Capsule; dose end: 33 week; group: systemic; systemic / hematology / hematocrit (hct) / hematocrit (hct) + systemic / hematology / hemoglobin (hgb) / hemoglobin (hgb) + systemic / organ…
# rat [9] = conditions: Chronic toxicity; other; Oral; Feed; dose end: 26 week; group: systemic; systemic / in life observation / body weight / body weight gain + systemic / in life observation / food consumption / food consumption + …
# dog [10] = conditions: Sub-acute repeat dose toxicity; beagle; Injection; Intravenous; dose end: 1 month; group: systemic; systemic / hematology / erythrocyte (rbc) count differential / erythrocyte (rbc) + systemic / hematology / hematocrit (hct) / hematocrit (…
# rat [11] = conditions: Developmental neurotoxicity study, wistar, Inhalation, Whole-Body, dose end: 81 PND, group: cannot be grouped
# rat [12] = conditions: Developmental neurotoxicity study; sprague dawley; Inhalation; Whole-Body; dose end: 21 PND; group: cannot be grouped; developmental / developmental malformation / general / [other] + systemic / in life observation / body weight / offspring (pup) weight + …
# rat [13] = conditions: Developmental neurotoxicity study; wistar; Inhalation; Whole-Body; dose end: 98 PND; group: cannot be grouped; systemic / in life observation / body weight / offspring (pup) weight
# mouse [14] = conditions: Developmental neurotoxicity study; cd1; Inhalation; Whole-Body; dose end: 20 PND; group: cannot be grouped; systemic / in life observation / body weight / offspring (pup) weight gain + systemic / in life observation / clinical signs / grip strength
# rat [15] = conditions: Developmental neurotoxicity study, sprague dawley, Inhalation, Whole-Body, dose end: 63 PND, group: cannot be grouped
# rat [16] = conditions: Developmental neurotoxicity study; wistar; Inhalation; Whole-Body; dose end: 119 PND; group: cannot be grouped; systemic / in life observation / body weight / offspring (pup) weight
# [17] = systemic / in life observation / body weight / body weight gain + systemic / in life observation / food consumption / food consumption + …
# [18] = group: offspring, systemic / in life observation / body weight / offspring (pup) weight
# [19] = group: parental, systemic / in life observation / body weight / body weight
# [20] = group: reproductive, reproductive / offspring survival early / birth index / live birth index
# [21] = group: offspring, developmental / offspring survival late / viability index / viability index + systemic / in life observation / body weight / offspring (pup…
# [22] = group: offspring, systemic / in life observation / body weight / offspring (pup) weight + systemic / in life observation / body weight / offspring (pup) …
# [23] = group: parental, systemic / in life observation / body weight / body weight gain
# [24] = group: parental, systemic / in life observation / body weight / body weight gain + systemic / in life observation / body weight / body weight + systemic / in…
# [25] = group: reproductive, reproductive / reproductive performance / mating / mating
# [26] = group: developmental, developmental / developmental malformation / bone / [other] + developmental / developmental malformation / bone / delayed ossification + …
# [27] = group: maternal, systemic / in life observation / body weight / body weight + systemic / in life observation / body weight / body weight gain + systemic / in…
# [28] = group: developmental, developmental / developmental malformation / bone / fused + developmental / developmental malformation / bone / supernumerary
# [29] = group: maternal, reproductive / reproductive performance / resorptions / resorptions
# [30] = systemic / organ weight / spleen / nos + systemic / organ weight / spleen / relative to body weight
# [31] = systemic / organ weight / liver / absolute + systemic / organ weight / liver / relative to body weight + systemic / pathology microscopic / …
# [32] = systemic / in life observation / mortality / mortality + systemic / pathology microscopic / adrenal gland / amyloid deposition + systemic / …
# [33] = systemic / in life observation / body weight / body weight + systemic / in life observation / body weight / body weight gain + developmental…
# [34] = systemic / in life observation / body weight / body weight gain + systemic / in life observation / clinical signs / motor activity
# [35] = systemic / in life observation / body weight / body weight gain + systemic / in life observation / clinical signs / motor activity + …
smiles,measurement,setting,value
CC(C)=CC1C(C(=O)OCc2coc(Cc3ccccc3)c2)C1(C)C (configuration not stated) [Resmethrin],NEL,dog [1]; [17],108 mg/kg/day
same,NOAEL,dog [1]; [17],108 mg/kg/day
same,LOAEL,"dog [1]; systemic / in life observation / body weight / body weight gain + systemic / pathology microscopic / eye / cataract, subcapsular",430 mg/kg/day
same,LEL,"dog [1]; systemic / in life observation / body weight / body weight gain + systemic / pathology microscopic / eye / cataract, subcapsular + systemic…",430 mg/kg/day
same,LEL,rat [2]; [18],25 mg/kg/day
same,LOAEL,rat [2]; [18],25 mg/kg/day
same,NEL,rat [2]; [18],< 25 mg/kg/day
same,NOAEL,rat [2]; [18],< 25 mg/kg/day
same,LEL,rat [2]; [19],40 mg/kg/day
same,LOAEL,rat [2]; [19],40 mg/kg/day
same,NEL,rat [2]; [19],25 mg/kg/day
same,NOAEL,rat [2]; [19],25 mg/kg/day
same,LEL,rat [2]; [20],40 mg/kg/day
same,LOAEL,rat [2]; [20],> 62.5 mg/kg/day
same,NEL,rat [2]; [20],25 mg/kg/day
same,NOAEL,rat [2]; [20],≥ 62.5 mg/kg/day
same,LOAEL,rat [3]; [21],70.8 mg/kg/day
same,NOAEL,rat [3]; [21],34.8 mg/kg/day
same,LEL,rat [3]; [22],34.8 mg/kg/day
same,NEL,rat [3]; [22],17.4 mg/kg/day
same,NEL,rat [3]; [23],34.8 mg/kg/day
same,NOAEL,rat [3]; [23],34.8 mg/kg/day
same,LEL,rat [3]; [24],70.8 mg/kg/day
same,LOAEL,rat [3]; [24],70.8 mg/kg/day
same,LEL,rat [3]; [25],70.8 mg/kg/day
same,LOAEL,rat [3]; [25],70.8 mg/kg/day
same,NEL,rat [3]; [25],34.8 mg/kg/day
same,NOAEL,rat [3]; [25],34.8 mg/kg/day
same,LEL,rat [4]; [26],80 mg/kg/day
same,LOAEL,rat [4]; [26],80 mg/kg/day
same,NEL,rat [4]; [26],40 mg/kg/day
same,NOAEL,rat [4]; [26],40 mg/kg/day
same,LEL,rat [4]; [27],80 mg/kg/day
same,LOAEL,rat [4]; [27],80 mg/kg/day
same,NEL,rat [4]; [27],40 mg/kg/day
same,NOAEL,rat [4]; [27],40 mg/kg/day
same,LEL,rabbit; [28],100 mg/kg/day
same,LOAEL,rabbit; [28],100 mg/kg/day
same,NEL,rabbit; [28],30 mg/kg/day
same,NOAEL,rabbit; [28],30 mg/kg/day
same,LEL,rabbit; [29],100 mg/kg/day
same,LOAEL,rabbit; [29],100 mg/kg/day
same,NEL,rabbit; [29],30 mg/kg/day
same,NOAEL,rabbit; [29],30 mg/kg/day
same,LOAEL,rat [5]; systemic / organ weight / liver / absolute + systemic / in life observation / body weight / body weight + systemic / in life observation / …,233 mg/kg/day
same,NOAEL,rat [5]; systemic / organ weight / liver / absolute + systemic / organ weight / liver / relative to body weight + systemic / organ weight / spleen / …,47 mg/kg/day
same,LEL,rat [5]; [30],47 mg/kg/day
same,NEL,rat [5]; [30],< 47 mg/kg/day
same,LOAEL,mouse [6]; systemic / in life observation / mortality / mortality,84.3 mg/kg/day
same,NOAEL,mouse [6]; systemic / in life observation / mortality / mortality + systemic / pathology microscopic / liver / adenoma/carcinoma combined + systemic / …,43.4 mg/kg/day
same,LEL,mouse [6]; [31],43.4 mg/kg/day
same,NEL,mouse [6]; [31],< 43.4 mg/kg/day
same,LOAEL,mouse [7]; [32],138 mg/kg/day
same,NEL,mouse [7]; [32],36.3 mg/kg/day
same,NOAEL,mouse [7]; [32],71.3 mg/kg/day
same,LEL,mouse [7]; systemic / organ weight / adrenal gland / absolute + systemic / organ weight / adrenal gland / relative to body weight + systemic / organ …,71.3 mg/kg/day
CN(C)[C@@H]1C(=O)C(C(N)=O)=C(O)[C@@]2(O)C(=O)C3=C(O)c4c(O)cccc4[C@@](C)(O)[C@H]3C[C@@H]12 [Tetracycline],LEL,dog [8],500 mg/kg/day
same,LOAEL,dog [8],> 500 mg/kg/day
same,NEL,dog [8],250 mg/kg/day
same,NOAEL,dog [8],≥ 500 mg/kg/day
same,LEL,rat [9],125 mg/kg/day
same,LOAEL,rat [9],> 500 mg/kg/day
same,NEL,rat [9],< 125 mg/kg/day
same,NOAEL,rat [9],≥ 500 mg/kg/day
same,LEL,dog [10],40 mg/kg/day
same,LOAEL,dog [10],> 40 mg/kg/day
same,NEL,dog [10],< 40 mg/kg/day
same,NOAEL,dog [10],≥ 40 mg/kg/day
Cc1ccccc1 [Toluene],NEL,rat [11]; systemic / in life observation / body weight / body weight + systemic / in life observation / body weight / body weight gain,600 ppm
same,LEL,rat [11]; [33],1000 ppm
same,LOAEL,rat [11]; [33],> 1200 ppm
same,NOAEL,rat [11]; [33],≥ 1200 ppm
same,LEL,rat [12],12000 ppm
same,LOAEL,rat [12],> 12000 ppm
same,NEL,rat [12],8000 ppm
same,NOAEL,rat [12],≥ 12000 ppm
same,LEL,rat [13],1800 ppm
same,LOAEL,rat [13],> 1800 ppm
same,NEL,rat [13],< 1800 ppm
same,NOAEL,rat [13],≥ 1800 ppm
same,LEL,mouse [14],2000 ppm
same,LOAEL,mouse [14],> 2000 ppm
same,NEL,mouse [14],400 ppm
same,NOAEL,mouse [14],≥ 2000 ppm
same,LEL,rat [15]; [34],8000 ppm
same,NEL,rat [15]; [34],< 8000 ppm
same,LOAEL,rat [15]; [35],> 12000 ppm
same,NOAEL,rat [15]; [35],≥ 12000 ppm
same,LEL,rat [16],1200 ppm
same,LOAEL,rat [16],> 1200 ppm
same,NEL,rat [16],< 1200 ppm
same,NOAEL,rat [16],≥ 1200 ppm
